Data: US11319376B2, “Combination of glucagon receptor antagonists and PI3K pathway inhibitors for the treatment of cancer” (REMD Biotherapeutics, Inc., priority 2016, dated 2022)

Assays:
[1] = system: CD-17 scid mice; conditions: cited from earlier work; for effect on GSK690693-induced hyperglycemia: CD-17 scid mice
[2] = system: cancer patient of diverse malignancies; conditions: cancer patients; cited from earlier work
[3] = molecular target: PI4Kβ (Homo sapiens, UniProt Q9UBF8); conditions: read-out: Target Selectivity (IC50) PI4Kβ; cited from earlier work
[4] = molecular target: mTOR (Homo sapiens, UniProt P42345); conditions: read-out: Target Selectivity (IC50) mTOR; cited from earlier work
[5] = molecular target: DNAPK (Homo sapiens, UniProt P78527); conditions: read-out: Target Selectivity (IC50) DNAPK; cited from earlier work
[6] = molecular target: ATR (Homo sapiens, UniProt Q13535); conditions: read-out: Target Selectivity (IC50) ATR; cited from earlier work
[7] = molecular target: VPS34 (Homo sapiens, UniProt Q8NEB9); conditions: read-out: Target Selectivity (IC50) VPS34; cited from earlier work
[8] = system: C57BL/6 mice; experiment: Effect of REMD2.59c pretreatment on induction of hyperglycemia by PI3K/Akt pathway inhibitors in C57BL/6 fed mice; assay type: in vivo, mouse; conditions: fed blood glucose, −24 h pretreatment ASN vehicle or REMD2.59c 7 mg/kg i.p., mean ± sd, n=3; for 2 h Glucose: 2 h after single p.o. dose (BYL719 50, BKM120 50, GDC-0980 10, MK2206 150, GSK690693 30, GDC-0068 10 or 100, OSI-906 100 mg/kg); for 4 h Glucose: 4 h after single p.o. dose (same doses as 2 h)
[9] = system: BALB/c athymic nude mice; experiment: Glucose and insulin response to MK2206 with/without REMD2.59c pretreatment in BALB/c athymic nude mice (MiaPaCa2 tumor bearing or naive); assay type: in vivo, mouse; conditions: for −0.5 h Glucose: 0.5 h before MK2206 dosing
[10] = molecular target: p70S6K (Homo sapiens, UniProt P23443); conditions: read-out: Target Selectivity (IC50) p70S6K; cited from earlier work
[11] = molecular target: CSF1R (Homo sapiens, UniProt P07333); conditions: read-out: Target Selectivity (IC50) CSF1R; cited from earlier work
[12] = system: patients with type 1 diabetes; conditions: single dose 70 mg subcutaneous; cited from earlier work

Sequence of ATR (Q13535 whole entry): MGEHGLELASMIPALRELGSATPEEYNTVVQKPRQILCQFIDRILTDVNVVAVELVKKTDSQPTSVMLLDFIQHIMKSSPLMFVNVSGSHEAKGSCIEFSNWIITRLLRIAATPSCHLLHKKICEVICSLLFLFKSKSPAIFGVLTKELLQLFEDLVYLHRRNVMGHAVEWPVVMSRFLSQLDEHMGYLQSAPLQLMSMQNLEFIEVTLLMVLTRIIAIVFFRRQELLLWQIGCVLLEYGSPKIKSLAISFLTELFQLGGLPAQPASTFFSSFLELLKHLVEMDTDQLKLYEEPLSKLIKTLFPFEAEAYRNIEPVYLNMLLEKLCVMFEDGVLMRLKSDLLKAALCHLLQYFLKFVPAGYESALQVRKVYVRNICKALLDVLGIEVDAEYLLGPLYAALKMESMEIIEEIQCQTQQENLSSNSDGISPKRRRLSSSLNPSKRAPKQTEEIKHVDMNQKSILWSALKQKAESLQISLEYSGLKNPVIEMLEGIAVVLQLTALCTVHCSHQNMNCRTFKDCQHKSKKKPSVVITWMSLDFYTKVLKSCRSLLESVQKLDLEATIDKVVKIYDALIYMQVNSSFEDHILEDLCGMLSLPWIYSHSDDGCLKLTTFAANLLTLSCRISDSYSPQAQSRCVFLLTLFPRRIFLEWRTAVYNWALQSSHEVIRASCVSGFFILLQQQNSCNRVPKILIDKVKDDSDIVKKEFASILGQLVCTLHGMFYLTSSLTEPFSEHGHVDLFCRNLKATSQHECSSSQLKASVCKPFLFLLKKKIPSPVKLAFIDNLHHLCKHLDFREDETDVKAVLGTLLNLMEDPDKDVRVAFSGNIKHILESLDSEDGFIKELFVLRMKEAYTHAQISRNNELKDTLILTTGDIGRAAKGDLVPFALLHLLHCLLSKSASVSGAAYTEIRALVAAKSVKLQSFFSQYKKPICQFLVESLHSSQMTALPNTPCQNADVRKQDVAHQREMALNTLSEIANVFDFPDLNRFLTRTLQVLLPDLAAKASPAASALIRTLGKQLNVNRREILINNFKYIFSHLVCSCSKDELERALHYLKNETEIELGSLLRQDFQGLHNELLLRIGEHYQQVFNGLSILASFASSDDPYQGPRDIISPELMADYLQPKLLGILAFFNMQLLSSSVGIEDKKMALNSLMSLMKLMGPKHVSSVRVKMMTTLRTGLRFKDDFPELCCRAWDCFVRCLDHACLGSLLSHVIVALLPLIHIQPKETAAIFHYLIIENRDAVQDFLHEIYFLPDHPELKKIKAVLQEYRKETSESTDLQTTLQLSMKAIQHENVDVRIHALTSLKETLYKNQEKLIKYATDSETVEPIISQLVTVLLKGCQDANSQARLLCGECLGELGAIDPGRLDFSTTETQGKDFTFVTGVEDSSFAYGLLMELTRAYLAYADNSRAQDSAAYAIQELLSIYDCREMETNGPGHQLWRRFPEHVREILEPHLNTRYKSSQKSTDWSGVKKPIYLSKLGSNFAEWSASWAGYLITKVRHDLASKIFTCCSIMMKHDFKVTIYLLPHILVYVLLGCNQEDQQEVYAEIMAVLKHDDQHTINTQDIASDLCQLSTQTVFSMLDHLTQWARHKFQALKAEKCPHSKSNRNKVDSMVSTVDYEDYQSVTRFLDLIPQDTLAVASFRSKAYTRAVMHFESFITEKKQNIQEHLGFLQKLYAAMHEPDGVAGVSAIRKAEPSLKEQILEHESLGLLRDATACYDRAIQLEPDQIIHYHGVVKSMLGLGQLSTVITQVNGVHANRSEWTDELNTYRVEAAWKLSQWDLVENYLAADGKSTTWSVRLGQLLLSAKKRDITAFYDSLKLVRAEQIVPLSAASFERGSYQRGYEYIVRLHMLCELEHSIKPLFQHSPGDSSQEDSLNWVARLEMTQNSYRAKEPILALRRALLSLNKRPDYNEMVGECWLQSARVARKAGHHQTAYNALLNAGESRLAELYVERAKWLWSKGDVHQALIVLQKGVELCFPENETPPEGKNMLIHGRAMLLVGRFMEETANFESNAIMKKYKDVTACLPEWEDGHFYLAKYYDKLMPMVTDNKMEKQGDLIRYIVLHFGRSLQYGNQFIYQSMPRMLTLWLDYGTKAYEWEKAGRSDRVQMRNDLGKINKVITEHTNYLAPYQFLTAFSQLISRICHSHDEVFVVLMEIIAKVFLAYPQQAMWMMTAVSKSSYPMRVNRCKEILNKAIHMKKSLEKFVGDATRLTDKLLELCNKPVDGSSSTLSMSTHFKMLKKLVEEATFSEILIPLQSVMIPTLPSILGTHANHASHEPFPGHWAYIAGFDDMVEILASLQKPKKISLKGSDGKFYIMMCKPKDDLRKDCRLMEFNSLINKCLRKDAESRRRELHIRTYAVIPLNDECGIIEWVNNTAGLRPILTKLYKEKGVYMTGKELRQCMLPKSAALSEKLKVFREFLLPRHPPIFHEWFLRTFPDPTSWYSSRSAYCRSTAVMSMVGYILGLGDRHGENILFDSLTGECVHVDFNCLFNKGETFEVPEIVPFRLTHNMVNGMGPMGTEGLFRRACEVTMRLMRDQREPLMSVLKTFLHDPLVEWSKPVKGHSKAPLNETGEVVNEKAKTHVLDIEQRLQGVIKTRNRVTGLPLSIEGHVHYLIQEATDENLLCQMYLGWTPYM
Sequence of ATR (Q8WXE1 whole entry partner): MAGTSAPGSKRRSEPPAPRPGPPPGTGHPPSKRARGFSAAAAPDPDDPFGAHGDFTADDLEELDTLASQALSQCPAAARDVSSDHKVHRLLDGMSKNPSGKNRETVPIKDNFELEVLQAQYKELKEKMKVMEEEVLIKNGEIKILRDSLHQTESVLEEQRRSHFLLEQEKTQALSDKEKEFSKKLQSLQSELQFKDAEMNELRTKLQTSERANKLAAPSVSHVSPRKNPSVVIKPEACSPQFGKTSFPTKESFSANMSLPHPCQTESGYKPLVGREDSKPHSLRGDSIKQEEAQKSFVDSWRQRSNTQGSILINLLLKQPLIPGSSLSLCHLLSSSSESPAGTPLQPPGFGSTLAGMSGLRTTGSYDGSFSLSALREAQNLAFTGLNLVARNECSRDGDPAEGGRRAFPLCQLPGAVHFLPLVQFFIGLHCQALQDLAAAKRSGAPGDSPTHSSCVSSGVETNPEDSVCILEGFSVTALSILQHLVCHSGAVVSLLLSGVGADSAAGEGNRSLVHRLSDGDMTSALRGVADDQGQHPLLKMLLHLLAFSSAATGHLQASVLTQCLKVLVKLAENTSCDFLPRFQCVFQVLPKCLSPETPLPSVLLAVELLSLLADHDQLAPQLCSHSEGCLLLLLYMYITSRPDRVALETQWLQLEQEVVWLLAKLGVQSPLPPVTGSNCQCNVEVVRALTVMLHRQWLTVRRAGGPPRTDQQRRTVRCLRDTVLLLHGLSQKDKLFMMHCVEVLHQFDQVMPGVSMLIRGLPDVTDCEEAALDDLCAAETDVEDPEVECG
Sequence of CSF1R (P07333 20-972, species assumed): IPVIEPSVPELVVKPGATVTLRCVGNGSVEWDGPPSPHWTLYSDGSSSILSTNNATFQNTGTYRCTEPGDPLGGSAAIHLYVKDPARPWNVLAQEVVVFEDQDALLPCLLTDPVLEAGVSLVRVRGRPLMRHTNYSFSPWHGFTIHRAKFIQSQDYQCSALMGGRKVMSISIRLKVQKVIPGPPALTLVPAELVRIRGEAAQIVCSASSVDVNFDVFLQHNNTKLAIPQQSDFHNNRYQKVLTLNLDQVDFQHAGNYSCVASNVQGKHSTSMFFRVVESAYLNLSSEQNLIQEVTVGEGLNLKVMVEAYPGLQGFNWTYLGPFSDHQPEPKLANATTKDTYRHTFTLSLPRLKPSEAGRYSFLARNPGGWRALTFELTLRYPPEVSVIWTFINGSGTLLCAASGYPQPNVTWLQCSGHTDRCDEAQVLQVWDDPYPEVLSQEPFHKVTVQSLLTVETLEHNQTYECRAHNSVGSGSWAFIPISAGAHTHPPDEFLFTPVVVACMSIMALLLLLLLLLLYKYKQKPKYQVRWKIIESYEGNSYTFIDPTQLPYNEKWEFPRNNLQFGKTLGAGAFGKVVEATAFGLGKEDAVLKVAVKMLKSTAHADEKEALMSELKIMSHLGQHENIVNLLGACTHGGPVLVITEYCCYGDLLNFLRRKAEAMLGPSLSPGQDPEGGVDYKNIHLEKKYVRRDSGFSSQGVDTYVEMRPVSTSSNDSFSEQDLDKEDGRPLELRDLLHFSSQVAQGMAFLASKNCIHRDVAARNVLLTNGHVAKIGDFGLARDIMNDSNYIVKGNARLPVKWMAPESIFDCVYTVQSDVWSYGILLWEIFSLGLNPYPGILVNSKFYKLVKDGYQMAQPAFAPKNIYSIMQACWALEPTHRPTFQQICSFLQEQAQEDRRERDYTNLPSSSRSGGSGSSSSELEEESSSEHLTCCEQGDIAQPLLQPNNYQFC
Sequence of p70S6K (P23443 whole entry): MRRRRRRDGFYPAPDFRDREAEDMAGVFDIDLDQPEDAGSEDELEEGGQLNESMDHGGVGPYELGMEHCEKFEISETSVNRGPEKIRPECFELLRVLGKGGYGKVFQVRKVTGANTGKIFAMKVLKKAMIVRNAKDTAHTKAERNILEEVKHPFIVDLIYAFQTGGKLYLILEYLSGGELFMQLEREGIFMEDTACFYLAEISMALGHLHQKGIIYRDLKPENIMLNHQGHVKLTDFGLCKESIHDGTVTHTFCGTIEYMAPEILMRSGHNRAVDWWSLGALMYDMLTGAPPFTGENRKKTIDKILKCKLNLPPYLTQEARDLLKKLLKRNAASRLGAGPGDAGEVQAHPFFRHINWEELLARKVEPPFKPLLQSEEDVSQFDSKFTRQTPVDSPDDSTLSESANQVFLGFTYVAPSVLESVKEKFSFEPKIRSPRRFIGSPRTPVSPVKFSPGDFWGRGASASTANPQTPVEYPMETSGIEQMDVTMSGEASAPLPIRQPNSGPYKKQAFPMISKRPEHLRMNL

For Exendin-4, the “effect on GSK690693-induced hyperglycemia” value (“effect” below) [1] is listed as “not prevented or reduce”.
For `Cc1nc(NC(=O)N2CCC[C@H]2C(N)=O)sc1-c1ccnc(C(C)(C)C(F)(F)F)c1` [BYL719, alpelisib], the “efficacy in Phase I/II clinical trials” value [2] is given as “minimal”, the “hyperglycemia and hyperinsulinemia in Phase I/II clinical trials” value (“hyperglycemia and hyperinsulinemia” below) [2] is given as “consistently observed” and the IC50 [3] is given as 0.581 µM. For the same molecule, the IC50 [4] was 9.1 µM, the IC50 [5] was 9.1 µM and the IC50 [6] was 15 µM. The IC50 [7] was 9.1 µM, the “2 h Glucose” value [8] was 17.4 ± 1.4 mM and the “4 h Glucose” value [8] was 11.9 ± 3.3 mM.
For `NC1(c2ccc(-c3nc4ccn5c(=O)[nH]nc5c4cc3-c3ccccc3)cc2)CCC1` [MK2206], the “efficacy in Phase I/II clinical trials” value [2] is given as “minimal”, the “hyperglycemia and hyperinsulinemia” value [2] is given as “consistently observed” and the “glucose levels after 2 h treatment” value ([9]; BALB/c nude mice, MK2206 150 mg/kg p.o.) is given as “not increased”. The “increase in serum insulin after 2 h treatment” value ([9]; BALB/c nude tumor bearing mice, MK2206 150 mg/kg p.o., statistically significant) was 65.5 fold, the “4 h Insulin” value ([9]; Table 4 (glucose table), MiaPaCa2 tumor bearing BALB/c nude mice, 4 h after MK2206 150 mg/kg p.o.) was 4.9 ± 0.8 ng/mL and the “4 h Insulin” value ([9]; Table 4 (glucose table), naive (tumor-free) BALB/c nude mice, 4 h after MK2206 150 mg/kg) was 5.7 ± 1.0 ng/mL. The “−0.5 h Glucose” value ([9]; Table 4, MiaPaCa2 tumor bearing BALB/c nude mice, 24 h after ASN or REMD2.59c, mean ± sd, n=3) was 5.6 ± 0.8 mM, the “2 h Glucose” value ([9]; Table 4, MiaPaCa2 tumor bearing BALB/c nude mice, 2 h after MK2206 150 mg/kg p.o.) was 5.5 ± 1.0 mM and the “−0.5 h Glucose” value ([9]; Table 4, naive (tumor-free) BALB/c nude mice, no pretreatment) was 5.7 ± 0.9 mM. The “2 h Glucose” value ([9]; Table 4, naive (tumor-free) BALB/c nude mice, 2 h after MK2206 150 mg/kg) was 5.8 ± 0.5 mM, the “2 h Glucose” value ([9]; Table 5 (insulin table), MiaPaCa2 tumor bearing BALB/c nude mice, 2 h after MK2206 150 mg/kg p.o.) was 26.2 ± 19.4 mM and the “4 h Insulin” value ([9]; Table 5, MiaPaCa2 tumor bearing BALB/c nude mice, 4 h after MK2206 150 mg/kg p.o.) was 7.1 ± 2.1 ng/mL. The “2 h Glucose” value [8] was 20.1 ± 0.8 mM and the “4 h Glucose” value [8] was 9.6 ± 1.3 mM.
With `C[C@]1(O)C[C@@H](c2nc(-c3ccc4ccc(-c5ccccc5)nc4c3)c3c(N)nccn32)C1` [OSI-906, linsitinib] the “2 h Glucose” value [8] was 29.3 ± 1.7 mM and the “4 h Glucose” value [8] was 23.4 ± 1.5 mM.
In the case of `CC(C)NC[C@@H](C(=O)N1CCN(c2ncnc3c2[C@H](C)C[C@H]3O)CC1)c1ccc(Cl)cc1` [GDC-0068, ipatasertib], the IC50 [10] is listed as 0.862 µM, the “2 h Glucose” value [8] is listed as 28.4 ± 2.0 mM and the “4 h Glucose” value [8] is listed as 25.9 ± 1.2 mM.
For `CCn1c(-c2nonc2N)nc2c(C#CC(C)(C)O)ncc(OC[C@H]3CCCNC3)c21` [GSK690693], the induction of hyperglycemia ([1]; mouse, in vivo) is given as “potently induces”, the “2 h Glucose” value [8] is given as 27.1 ± 2.6 mM and the “4 h Glucose” value [8] is given as 21.2 ± 1.5 mM.
In the case of `Nc1cc(C(F)(F)F)c(-c2cc(N3CCOCC3)nc(N3CCOCC3)n2)cn1` [BKM120, buparlisib], the “efficacy in Phase I/II clinical trials” value [2] is listed as “minimal”, the “hyperglycemia and hyperinsulinemia” value [2] is listed as “consistently observed” and the IC50 [11] is listed as 0.582 µM. For the same molecule, the IC50 [6] was 8.09 µM, the “2 h Glucose” value [8] was 15.7 ± 2.5 mM and the “4 h Glucose” value [8] was 9.1 ± 1.3 mM.
For `CN(C)C(=N)N=C(N)N` [metformin], the “effect” value [1] is given as “not prevented or reduce”.
For `Cc1c(CN2CCN(C(=O)[C@H](C)O)CC2)sc2c(N3CCOCC3)nc(-c3cnc(N)nc3)nc12` [GDC-0980, apitolisib], the “2 h Glucose” value [8] was 27.0 ± 1.8 mM and the “4 h Glucose” value [8] was 20.5 ± 0.9 mM.
In the case of `N#C[C@@H]1CCCN1C(=O)CNC12CC3CC(CC(O)(C3)C1)C2` [vildagliptin], the “effect” value [1] is given as “not prevented or reduce”.
In the case of “REMD-477: fully human anti-GCGR monoclonal antibody, heavy chain SEQ ID NO: 49 and light chain SEQ ID NO: 50”, the “amount of insulin needed” value [12] is listed as “substantially reduce”, the glucose levels [12] is listed as “improve” and the “hypoglycemia (low blood glucose levels)” value [12] is listed as “without increasing”.
